Test results taken from patent US10342853B2, “Leptin active peptide having D helix region mutations, coding gene thereof, and application thereof” (SHANGHAI YUANXIN BIOCHEMICAL SCIENCE AND TECHNOLOGY CO. LTD., priority 2015, dated 2019).

Tested on: 3T3-L1 preadipocyte line
Assay: In-vitro lipid-lowering (adipocyte-degrading) activity analysis, MTT detection
Type: cell-based
Protocol: Lipid degradation activity of the synthesized leptin active peptide having helix D region mutation is analyzed on a cellular level by taking a 3T3-L1 preadipocyte line as a model. Specific operations are as follows:
b: an early differentiation stage D0-D2 (0-2nd day of induced differentiation); and
c: a mature adipocyte stage D9 (the 9th day of induced differentiation);
a. leptin active peptide having helix D region mutation (PEP-D): diluted to 10^−3M with purified water and preserved at −20 degree C. for later use. After an experiment is started, working concentrations have 3 concentration gradients, that is, 10^−6M, 10^−9M and 10^−11M;
b. positive control. I: H-LEP, recombinant human-derived leptin protein (10221-HNAE, Beijing Sino Biological Inc.), diluted to 10^−6M with purified water and preserved at −20 degree C. for later use. After an experiment is started, the working concentration is 10^−9M;
c. positive control 2: Ros (Rosiglitazone, 82408, Sigma), diluted to a stock solution with a concentration of 2518 μM with DMSO and preserved at −20 degree C. for later use. After an experiment is started, the stock solution is diluted to a working solution of 0.5 μM with cell culture fluid;
d. negative control (Control): equivalent quantity of PBS
(1) Inoculating 3T3-L1 preadipocytes in corning cell bind 96-well plates (totally inoculated with 3 plates, respectively plate a, plate b and plate c), wherein the inoculation density is 4500 cells/well; and marking, and standing and culturing at 37 degree C. in a 5% CO2 incubator. Each sample of each plate is operated repeatedly for 3 times, and the whole experiment is repeated for 3 times;
(2) Continuously culturing for 48 hours after the cells are merged to 100% (enabling the cells to exit from a growth cycle, and starting induced differentiation); and
i, taking out the plate a; respectively adding different amounts of leptin active peptide having helix D region mutation (PEP-D) to enable the working concentrations to be respectively 3 concentration gradients, that is, 10^−6M, 10^−9M and 10^−11M; setting 2 positive controls, a negative control (PBS) and a blank control (3 repeated holes are set for each sample), and continuously standing and culturing at 37 degree C. in the 5% CO2 incubator.
ii, when culturing to 45 hours (that is, 3 hours before the end of drug treatment), taking out the plate a, and measuring MTT (preadipocytes). Specific operations: adding 20 μL of 5 mg/mL of MTT solution into each well, continuously standing and culturing at 37 degree C. in the 5% CO2 incubator for 3 hours, sucking and discarding the culture solution in the wells, adding 150 μL of DMSO into each well, horizontally shaking for 10 min, detecting a light absorption value at 492 nm by a microplate reader, and drawing a growth curve;
i, taking out the plate b; adding the differentiation induced liquid I (D0); respectively adding the leptin active peptide having helix D region mutation (PEP-D); setting 2 positive controls, a negative control (PBS) and a blank control (3 repeated holes are set for each sample), and continuously standing and culturing at 37 degree C. in the 5% CO2 incubator.
ii, when culturing to 45 hours (that is, 3 hours before the end of drug treatment), taking out the plate b, and measuring MTT (at the early differentiation stage, D0-D2). Specific operations: adding 20 μL, of 5 mg/mL of MTT solution into each well; continuously standing and culturing at 37 degree C. in the 5% CO2 incubator for 3 hours; sucking and discarding the culture solution in the wells; adding 150 μL of DMSO into each well; horizontally shaking for 10 min; detecting a light absorption value at 492 nm by the microplate reader; and drawing a growth curve;
i, taking out the plate c; adding the differentiation induced liquid I (D0) into each well; and continuously standing and culturing at 37 degree C. in the 5% CO2 incubator for 48 hours; […]

Row | Substance | adipocyte lysis activity vs. negative control (Control, PBS) (MTT, FIG. 2 mark a, P<0.05, H-LEP 10^−9M, Ros 0.5 μM) | adipocyte lysis activity vs. H-LEP (MTT, FIG. 2 mark b, P<0.05) | adipocyte lysis activity vs. Ros (MTT, FIG. 2 mark c, P<0.05) | concentration dependence of lipid-lowering activity (MTT, PEP-D at 10^−6M, 10^−9M and 10^−11M) | concentration with optimal lipid-lowering effect (MTT, of 10^−6M, 10^−9M and 10^−11M tested, on a whole) | dependence of lipid-lowering activity on cell differentiation period (MTT, preadipocytes, D0-D2, D9) | adipocyte-degrading activity compared with positive controls H-LEP and Ros (MTT, three cell differentiation stages (preadipocytes, early differentiation D0-D2, mature adipocyte D9), H-LEP 10^−9M, Ros 0.5 μM) | cell lysis effects at three stages (preadipocytes stage, differentiation stage (D0-D2), mature adipocyte stage (D9))
1 | H-LEP: recombinant human-derived leptin protein (10221-HNAE, Beijing Sino Biological Inc.), positive control | obviously better than that of the negative control | – | – | – | – | – | – | –
2 | STEVVALDGLQGSLQTMLLQLEYS (An amino acid sequence of the leptin active peptide having helix D region mutation) [PEP-D] | – | obviously better than that of the H-LEP | obviously better than that of the Ros | obvious concentration dependence | 10^−9 M | dependence in a cell differentiation period | obviously better than that of positive control-human-derived leptin protein (H-LEP) and a commercially available drug rosiglitazone (Ros) | obvious cell lysis effects
